Measured values: patent US4808596A, “Imidazo[4,5-b]pyridine compounds and pharmaceutical compositions containing same” (Tokyo Tanabe Company, Ltd., priority 1986, dated 1989)
Where two headings read alike, the source gives them in different places.

Legend:
(H^+ +K^+) ATPase = target: T1, (H^+ +K^+) ATPase (Sus scrofa, UniProt P19156); assay: Inhibitory effect on (H^+ +K^+) ATPase; type: biochemical, hog; settings: at 1 × 10^-3 M; in vitro; read-out: Degree of inhibition, Inhibitory effect on (H^+ + K^+) ATPase
T1 construct: prepared from fresh pieces of the fundus ventriculi of hog stomach; from tissue; host or cells: hog stomach, fundus ventriculi (fresh pieces), prepared by the method of Saccomani et al., J. Biol. Chem. 1976
T1 sequence (P19156 2-1034 limits assumed): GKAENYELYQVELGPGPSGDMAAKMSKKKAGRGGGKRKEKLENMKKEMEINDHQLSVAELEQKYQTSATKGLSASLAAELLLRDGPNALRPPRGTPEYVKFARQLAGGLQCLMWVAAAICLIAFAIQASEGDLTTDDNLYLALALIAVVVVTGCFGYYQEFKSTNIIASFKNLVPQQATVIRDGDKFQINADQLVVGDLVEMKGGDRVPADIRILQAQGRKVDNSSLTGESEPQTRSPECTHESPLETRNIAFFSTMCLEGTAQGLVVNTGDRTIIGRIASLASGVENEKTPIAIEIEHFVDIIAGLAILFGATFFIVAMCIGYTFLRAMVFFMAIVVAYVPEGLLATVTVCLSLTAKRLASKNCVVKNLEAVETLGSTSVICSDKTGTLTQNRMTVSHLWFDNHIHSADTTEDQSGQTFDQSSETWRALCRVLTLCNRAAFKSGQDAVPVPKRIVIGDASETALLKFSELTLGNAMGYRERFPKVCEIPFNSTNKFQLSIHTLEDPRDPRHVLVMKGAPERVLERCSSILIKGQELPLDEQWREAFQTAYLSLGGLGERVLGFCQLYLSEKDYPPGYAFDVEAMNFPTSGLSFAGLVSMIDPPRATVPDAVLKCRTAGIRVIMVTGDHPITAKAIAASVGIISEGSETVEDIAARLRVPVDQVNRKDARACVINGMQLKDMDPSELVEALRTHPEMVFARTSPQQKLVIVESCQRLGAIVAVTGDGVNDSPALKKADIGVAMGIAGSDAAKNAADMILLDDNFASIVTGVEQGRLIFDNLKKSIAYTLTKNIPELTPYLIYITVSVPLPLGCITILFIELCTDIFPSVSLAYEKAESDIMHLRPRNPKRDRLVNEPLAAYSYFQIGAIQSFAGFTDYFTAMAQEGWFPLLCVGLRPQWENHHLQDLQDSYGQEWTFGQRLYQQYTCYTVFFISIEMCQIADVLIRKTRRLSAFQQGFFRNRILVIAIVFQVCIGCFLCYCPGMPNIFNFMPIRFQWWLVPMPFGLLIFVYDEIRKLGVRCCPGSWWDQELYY
T1 sequence (P18434 whole entry partner): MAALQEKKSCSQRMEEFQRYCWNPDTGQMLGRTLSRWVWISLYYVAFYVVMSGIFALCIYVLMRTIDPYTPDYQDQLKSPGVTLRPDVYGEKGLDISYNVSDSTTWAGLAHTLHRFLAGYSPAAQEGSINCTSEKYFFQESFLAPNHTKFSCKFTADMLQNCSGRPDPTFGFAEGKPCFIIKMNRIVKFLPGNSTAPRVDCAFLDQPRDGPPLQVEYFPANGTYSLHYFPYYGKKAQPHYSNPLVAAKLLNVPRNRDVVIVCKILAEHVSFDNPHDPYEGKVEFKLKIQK
Experimental: The inhibitory effect of the present compounds [I] on (H^+ +K^+) ATPase was tested by adding each test compound to a solution containing 300-500 μg, on a protein basis, of the enzyme, incubating this reaction mixture at 35°-37° C. for 5-30 minutes, and then determining the residual activity of (H^+ +K^+) ATPase present in the reaction mixture. The test compounds were dissolved in methanol or ethanol in advance and added to the reaction system in such an amount as to give a concentration of 1×10^-3 M. The (H^+ +K^+) ATPase used in this test was prepared from fresh pieces of the fundus ventriculi of hog stomach according to the method of Saccomani et al. (The Journal of Biological Chemistry, Vol. 251, No. 23, p. 7690, 1976). The residual activity of (H^+ +K^+) ATPase was determined by mixing magnesium chloride and potassium chloride with the incubated reaction mixture, adding adenosine triphosphate thereto, incubating this assay mixture 37° C. for 5-15 minutes to effect an enzymic reaction, and colorimetrically determining the liberated inorganic phosphate by use of an ammonium molybdate reagent. The initial concentrations of magnesium chloride, potassium chloride and adenosine triphosphate were adjusted to 2 mM, 20 mM and 2 mM, respectively. Colorimetric determinations were made at a wavelength of 360-400 nm. As a control experiment, the residual activity of (H^+ +K^+) ATPase was determined by repeating the above-described procedure without adding any test compound to the reaction system. In this table, the inhibitory effect is indicated by the degree of inhibition which was obtained by calculating the difference between the measured value obtained in the control experiment and the measured value resulting from the addition of each test compound and expressing this difference as a percentage of the measured value obtained in the control experiment. For purposes of comparison, the inhibitory effect of Omeprazole and Compounds α and β on (H^+ +K^+) ATPase was tested in the same manner as described above and the results thus obtained are also shown in Table 2.

gastric acid secretion = assay: Inhibitory effect on gastric acid secretion (pylorus ligation); type: in vivo, male Wistar rats; settings: Rattus norvegicus, po, rats; total acidity of gastric juice 4 hours after pylorus ligation
Experimental: The inhibitory effect of the present compounds [I] on gastric acid secretion was tested by using male Wistar rats, weighing about 200 g, in groups of five. To these rats which had been fasted overnight, the test compounds were orally administered in a series of appropriately selected doses ranging from 1 to 100 mg/kg. Then, the pyloric end of the stomach was ligated. After the lapse of 4 hours, the total acidity of gastric juice of each rat was measured. More specifically, the test compounds were suspended in a 0.5% aqueous solution of carboxymethyl cellulose and administered to the rats 30 minutes before ligation. Gastric juice was collected by sacrificing and laparotomizing each rat. The total acidity of gastric juice was determined by titrating the gastric juice with a 0.1 N aqueous solution of sodium hydroxide until a pH of 7.0 was reached. As a control experiment, the total acidity of gastric juice of an untreated group was determined in the same manner as described above. The inhibitory effect of the test compounds on gastric acid secretion was evaluated on the basis of the dose (in mg/kg) required to inhibit gastric acid secretion, i.e. the total acidity of gastric juice, by 50% (hereinafter referred to as ED50). The ED50 value of each test compound was determined by calculating the difference in total acidity between the untreated group and each treated group, dividing the difference by the total acidity of the untreated group to obtain the degree of inhibition, and constructing a dose-response curve on the basis of the data thus obtained. For purposes of comparison, the ED50 values of Omeprazole and Compounds α and β were determined in the same manner as described above and are also shown in Table 3.

physchem = type: physicochemical; settings: solid
Experimental: The storage stability of the present compounds [I] was tested by allowing each test compound to stand under severe conditions (i.e., a temperature of 60° C. and a relative humidity of 75%) for 8 days and then determining its percentage of residue according to a thin-layer densitometric method (Bunseki Kagaku, Vol. 23, No. 9, p. 1016, 1974). More specifically, upon completion of the severe treatment, 100 μg of each test compound was applied to a thin-layer plate and this plate was developed with a chloroform-ethanol mixture (volume ratio 10:1). The thin-layer plate used for this purpose was a TLC Plate Aluminum Oxide 60F254 (manufactured by Merck Co.; 0.25 mm in thickness and 20 cm×20 cm in size), and it was developed over a distance of 15 cm. Then, using a Shimazu Two-wavelength Chromatoscanner CS-910 (manufactured by Shimazu Seisakusho), the resulting spot was analyzed at a wavelength of 300-315 nm.
For purposes of comparison, the percentages of residue of Omeprazole (at a measuring wavelength of 300 nm) and Compounds α and β (at a measuring wavelength of 310 nm) were determined in the same manner as described above and are also shown in Table 1.

[1] = Acute toxicity test (LD50); settings: rat, in vivo, rats
Experimental: The acute toxicity (LD50) of several typical examples of the present compounds [I] (i.e., the compounds of Examples 1, 8, 13, 19, 24, 26 and 33) was tested with 5-weeks-old male Wistar rats. […] When Omeprazole was administered orally, its LD50 value was greater than 4000 mg/kg.

inhibition at 1000 µM ((H^+ +K^+) ATPase) [%] | remaining at 192 h (physchem; 75% rh) [%] | Structure (SMILES) | ED50 (gastric acid secretion) [mg/kg] | LD50 ([1]; ip, intraperitoneal administration) [mg/kg] | LD50 ([1]; oral administration) [mg/kg] | remaining at 192 h (physchem; after treatment at 60° C. and 75% RH for 8 days, read-out: Storage stability, Percentage of residue) [%]
96.6 | 77 | COc1ccc2[nH]c([S+]([O-])Cc3ncc(C)c(OC)c3C)nc2n1 (centres unmarked) [Example 2, 2-[2-(3,5-Dimethyl-4-methoxy)pyridylmethylsulfinyl]-5-methoxyimidazo[4,5-b]pyridine] | 18 | – | – | –
100 | 99 | COc1ccc2[nH]c([S+]([O-])Cc3ncc(C)c(C)c3C)nc2n1 (centres unmarked) [Example 3, 2-[2-(3,4,5-Trimethyl)pyridylmethylsulfinyl]-5-methoxyimidazo[4,5-b]pyridine] | 9 | – | – | –
100 | 98 | COc1ccc2[nH]c([S+]([O-])Cc3cc(OC)c(C)cn3)nc2n1 (centres unmarked) [Example 4, 2-[2-(4-Methoxy-5-methyl)pyridylmethylsulfinyl]-5-methoxyimidazo[4,5-b]pyridine] | 15 | – | – | –
98.8 | 53 | COc1cc(C[S+]([O-])c2nc3nccc(OC)c3[nH]2)ncc1C (centres unmarked) [Example 7, 2-[2-(4-Methoxy-5-methyl)pyridylmethylsulfinyl]-7-methoxyimidazo[4,5-b]pyridine] | 22 | – | – | –
90 | 92 | Cc1cnc(C[S+]([O-])c2nc3nc(OC(C)C)ccc3[nH]2)c(C)c1 (centres unmarked) [Example 10, 2-[2-(3,5-Dimethyl)pyridylmethylsulfinyl]-5-isopropyloxyimidazo[4,5-b]pyridine] | 19 | – | – | –
98.5 | 76 | CCCCOc1ccc2[nH]c([S+]([O-])Cc3ncc(C)c(C)c3C)nc2n1 (centres unmarked) [Example 12, 2-[2-(3,4,5-Trimethyl)pyridylmethylsulfinyl]-5-n-butyloxyimidazo[4,5-b]pyridine] | 21 | – | – | –
100 | 93 | CCOc1ccc2[nH]c([S+]([O-])Cc3ncc(C)cc3C)nc2n1 (centres unmarked) [Example 14, 2-[2-(3,5-Dimethyl)pyridylmethylsulfinyl]-5-ethoxyimidazo[4,5-b]pyridine] | 15 | – | – | –
98.5 | 87 | COc1c(C)cnc(C[S+]([O-])c2nc3nc(OC(C)C)ccc3[nH]2)c1C (centres unmarked) [Example 15, 2-[2-(3,5-Dimethyl-4-methoxy)pyridylmethylsulfinyl]-5-isopropyloxyimidazo[4,5-b]pyridine] | 13 | – | – | –
96.1 | 90 | COc1cc(C[S+]([O-])c2nc3nc(OC(C)C)ccc3[nH]2)ncc1C (centres unmarked) [Example 16, 2-[2-(4-Methoxy-5-methyl)pyridylmethylsulfinyl]-5-isopropyloxyimidazo[4,5-b]pyridine] | 16 | – | – | –
93.7 | 75 | COc1ccnc(C[S+]([O-])c2nc3nc(OC(C)C)ccc3[nH]2)c1 (centres unmarked) [Example 17, 2-[2-(4-Methoxy)pyridylmethylsulfinyl]-5-isopropyloxyimidazo[4,5-b]pyridine] | 17 | – | – | –
92.3 | 85 | CCCOc1ccc2[nH]c([S+]([O-])Cc3ncc(C)cc3C)nc2n1 (centres unmarked) [Example 18, 2-[2-(3,5-Dimethyl)pyridylmethylsulfinyl]-5-n-propyloxyimidazo[4,5-b]pyridine] | 19 | – | – | –
100 | 72 | COc1c(C)cnc(C[S+]([O-])c2nc3nc(OCC(C)C)ccc3[nH]2)c1C (centres unmarked) [Example 20, 2-[2-(3,5-Dimethyl-4-methoxy)pyridylmethylsulfinyl]-5-isobutyloxyimidazo[4,5-b]pyridine] | 10 | – | – | –
97.4 | 69 | COc1cc(C[S+]([O-])c2nc3nc(OCC(C)C)ccc3[nH]2)ncc1C (centres unmarked) [Example 21, 2-[2-(4-Methoxy-5-methyl)pyridylmethylsulfinyl]-5-isobutyloxyimidazo[4,5-b]pyridine] | 13 | – | – | –
94.6 | 57 | COc1ccnc(C[S+]([O-])c2nc3nc(OCC(C)C)ccc3[nH]2)c1 (centres unmarked) [Example 22, 2-[2-(4-Methoxy)pyridylmethylsulfinyl]-5-isobutyloxyimidazo[4,5-b]pyridine] | 15 | – | – | –
100 | 95 | Cc1cnc(C[S+]([O-])c2nc3nc(OCC4CC4)ccc3[nH]2)c(C)c1 (centres unmarked) [Example 23, 2-[2-(3,5-Dimethyl)pyridylmethylsulfinyl]-5-cyclopropylmethyloxyimidazo[4,5-b]pyridine] | 12 | – | – | –
92.9 | 51 | COc1ccnc(C[S+]([O-])c2nc3nc(OCC4CC4)ccc3[nH]2)c1 (centres unmarked) [Example 25, 2-[2-(4-Methoxy)pyridylmethylsulfinyl]-5-cyclopropylmethyloxyimidazo[4,5-b]pyridine] | 18 | – | – | –
98.5 | 76 | Cc1cnc(C[S+]([O-])c2nc3nc(OCCC(C)C)ccc3[nH]2)c(C)c1 (centres unmarked) [Example 34, 2-[2-(3,5-Dimethyl)pyridylmethylsulfinyl]-5-(3-methylbutyloxy)imidazo[4,5-b]pyridine] | 14 | – | – | –
93 | 68 | COc1c(C)cnc(C[S+]([O-])c2nc3ncc(OCCCC4CCCC4)cc3[nH]2)c1C (centres unmarked) [Example 36, 2-[2-(3,5-Dimethyl-4-methoxy)pyridylmethylsulfinyl]-6-(3-cyclopentylpropyloxy)imidazo[4,5-b]pyridine] | 19 | – | – | –

Structure (SMILES) | inhibition at 1000 µM ((H^+ +K^+) ATPase) [%] | remaining at 192 h (physchem; 75% rh) [%] | ED50 (gastric acid secretion) [mg/kg] | LD50 ([1]; ip, intraperitoneal administration) [mg/kg] | LD50 ([1]; oral administration) [mg/kg] | remaining at 192 h (physchem; after treatment at 60° C. and 75% RH for 8 days, read-out: Storage stability, Percentage of residue) [%]
Cc1cnc(C[S+]([O-])c2nc3nc(OCC(C)C)ccc3[nH]2)c(C)c1 (centres unmarked) [Example 19, 2-[2-(3,5-Dimethyl)pyridylmethylsulfinyl]-5-isobutyloxyimidazo[4,5-b]pyridine] | 100 | 78 | 11 | > 500 | > 4000 | –
Cc1ccnc(C[S+]([O-])c2nc3nc(OCC(F)(F)C(F)(F)C(F)(F)F)ccc3[nH]2)c1 (centres unmarked) [Example 30, 2-[2-(4-Methyl)pyridylmethylsulfinyl]-5-(2,2,3,3,4,4,4-heptafluorobutyloxy)imidazo[4,5-b]pyridine] | 92.1 | – | 19 | – | – | 73
